From US20250289879A1, “THERAPEUTIC MODULATION OF GENES IN MYELOID LINEAGE CELLS AND USES THEREOF IN OPHTHALMOLOGY” (The Children's Medical Center Corporation, priority 2022, published 2025)

What was measured:
OIR mice = assay: Oxygen-induced retinopathy (OIR) mouse model, NV and VO areas on retinal flat mounts; assay type: in vivo
Experimental: OIR was carried out using neonatal mice as described previously (Smith et al., 1994). Briefly, mouse pups with nursing female mice were exposed to 75% oxygen from postnatal day (P) 7 to 12, then returned to room air until to P17 for phenotypical analysis and gene expression at indicated time. For phenotypical analysis, the retinas were collected at P17, dissected, and stained with fluorescent dye conjugated-Griffonia Simplicifolia Isolectin IB4 (Invitrogen) overnight and flat-mounted. The avascular (vasoobliteration, VO) and pathological neovascularization (NV) areas were quantified (Connor et al., 2009) by masked researchers using Image J (National Institutes of Health, imagej.nih.gov/ij/) and Adobe Photoshop (Adobe Systems). The exclusion criteria for the OIR mouse model was used as described previously. Mice with bodyweight less than 5 grams at P17 were excluded from the study (Stahl et al., 2010).
OIR was carried out using neonatal mice as described previously^81. Briefly, mouse pups with nursing female mice were exposed to 75% oxygen from postnatal day (P) 7 to 12, then returned to room air until P17 for phenotypical analysis and gene expression analysis at indicated times. For phenotypical analysis, the retinas were collected at P17, dissected, and stained with fluorescent dye conjugated with Griffonia Simplicifolia Isolectin IB4 (Invitrogen) overnight and flat-mounted. The avascular (vaso-obliteration, VO) and pathological NV areas were quantified^82 by masked researchers using Image J (National Institutes of Health) and fully automated deep learning segmentation method^83. The exclusion criteria for the OIR mouse model were used as previously described^84.
SOCS3 agonist, naringenin (400 mg/kg/day, gavage) 49, and control reagents were administrated to C57BL/6J OIR mice from P12 to P16. SOCS3 peptidomimetic and negative control (NC) peptides were synthesized and purified as described 74. […] The identity and purity of main products were evaluated by LC-MS and purified compounds were lyophilized and stored at −20° C. until use. […]

laser-induced CNV mice = details: previously reported (ref 49), vs control treatment; cited from earlier work
SOCS3 = details: reported (refs 56, 57, 49); cited from earlier work

## O=C1C[C@@H](c2ccc(O)cc2)Oc2cc(O)cc(O)c21 [naringenin]
OIR mice; OIR retinas at P17, vs control treatment
  effect on retinal neovascularization (NV), in words: significantly reduced NV
OIR mice; OIR retinas, vs control treatment
  effect on vaso-obliteration (VO) / blood vessel loss, in words: without influencing VO
OIR mice; naringenin treatment from P12 to P16, 400 mg/kg/day, C57BL/6J OIR mice
  reduction of NV at P17 compared to controls: about 50%
laser-induced CNV mice
  effect on laser-induced CNV, in words: significantly suppresses laser-induced CNV
SOCS3
  SOCS3 expression, in words: induces SOCS3 expression
